From the NIST ThermoML archive (doi:10.1016/j.tca.2014.08.003)

Details: Crystal, Calculated from knudsen effusion weight loss

[Cu][Br] [copper(1+) bromide]
Details | vapor or sublimation pressure [kPa]
528.8 K | 1.17e-05
530.1 K | 9.37e-06
532 K | 1.25e-05
551.4 K | 2.45e-05
551.6 K | 3.17e-05
553.5 K | 4.55e-05
570.8 K | 9.35e-05
572.6 K | 0.000104
573.5 K | 0.000113
592.1 K | 0.000235
593.8 K | 0.000273
594.6 K | 0.000301
611.9 K | 0.000512
614.9 K | 0.000595
618.1 K | 0.000705
633 K | 0.00115
634.1 K | 0.00121
635 K | 0.00109
655.2 K | 0.00229
656.8 K | 0.00229
658.2 K | 0.00269

[Br-].[Br-].[Zn+2] [zinc bromide]
Details | vapor or sublimation pressure [kPa]
452.5 K | 2.26e-05
452.8 K | 2.04e-05
453.1 K | 2.07e-05
453.6 K | 1.28e-05
469.4 K | 4.74e-05
472.1 K | 9.63e-05
472.7 K | 8.63e-05
473.8 K | 7.35e-05
492.8 K | 0.000262
493.1 K | 0.000181
493.2 K | 0.000217
493.9 K | 0.000252
511.2 K | 0.000691
511.3 K | 0.000577
513 K | 0.000684
513.1 K | 0.000719
528.9 K | 0.00158
530.2 K | 0.00192
532.9 K | 0.00201
533.9 K | 0.0019
551.6 K | 0.0051
552 K | 0.00505
552.7 K | 0.00453
552.8 K | 0.00521
568 K | 0.00978
570.3 K | 0.0106
572.3 K | 0.00997
574 K | 0.0126
